Legend:
Assay in all cases: Fluorescein-AMP
Assay type in all cases: biochemical
[1] = biological target: PDE5A (Homo sapiens, UniProt O76074)
[2] = biological target: PDE8A1 (Homo sapiens, UniProt O60658)
[3] = biological target: PDE3A (Homo sapiens, UniProt Q14432)
[4] = biological target: PDE10A2 (Homo sapiens, UniProt Q9Y233)
Chain of PDE10A2 (Q9Y233 267-1055): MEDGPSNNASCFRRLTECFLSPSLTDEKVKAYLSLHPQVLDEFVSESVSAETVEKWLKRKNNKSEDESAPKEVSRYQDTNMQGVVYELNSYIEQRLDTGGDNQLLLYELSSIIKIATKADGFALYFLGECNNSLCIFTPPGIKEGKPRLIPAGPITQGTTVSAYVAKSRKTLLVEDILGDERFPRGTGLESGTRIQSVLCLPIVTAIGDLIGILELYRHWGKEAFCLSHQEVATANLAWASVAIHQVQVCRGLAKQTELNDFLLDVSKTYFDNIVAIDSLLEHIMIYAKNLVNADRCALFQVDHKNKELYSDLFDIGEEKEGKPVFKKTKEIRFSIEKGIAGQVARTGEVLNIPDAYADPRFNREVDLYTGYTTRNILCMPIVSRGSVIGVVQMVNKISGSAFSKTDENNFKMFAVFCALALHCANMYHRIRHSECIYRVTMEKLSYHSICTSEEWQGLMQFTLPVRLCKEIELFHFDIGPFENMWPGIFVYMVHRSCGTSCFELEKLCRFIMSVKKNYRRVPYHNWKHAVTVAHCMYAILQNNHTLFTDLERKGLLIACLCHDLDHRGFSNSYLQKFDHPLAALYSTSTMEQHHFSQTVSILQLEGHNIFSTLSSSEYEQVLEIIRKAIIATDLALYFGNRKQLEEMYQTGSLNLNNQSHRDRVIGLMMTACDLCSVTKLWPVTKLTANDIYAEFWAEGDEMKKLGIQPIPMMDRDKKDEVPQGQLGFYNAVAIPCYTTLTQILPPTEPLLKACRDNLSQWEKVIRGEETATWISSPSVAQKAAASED

Chain of PDE3A (Q14432 whole entry): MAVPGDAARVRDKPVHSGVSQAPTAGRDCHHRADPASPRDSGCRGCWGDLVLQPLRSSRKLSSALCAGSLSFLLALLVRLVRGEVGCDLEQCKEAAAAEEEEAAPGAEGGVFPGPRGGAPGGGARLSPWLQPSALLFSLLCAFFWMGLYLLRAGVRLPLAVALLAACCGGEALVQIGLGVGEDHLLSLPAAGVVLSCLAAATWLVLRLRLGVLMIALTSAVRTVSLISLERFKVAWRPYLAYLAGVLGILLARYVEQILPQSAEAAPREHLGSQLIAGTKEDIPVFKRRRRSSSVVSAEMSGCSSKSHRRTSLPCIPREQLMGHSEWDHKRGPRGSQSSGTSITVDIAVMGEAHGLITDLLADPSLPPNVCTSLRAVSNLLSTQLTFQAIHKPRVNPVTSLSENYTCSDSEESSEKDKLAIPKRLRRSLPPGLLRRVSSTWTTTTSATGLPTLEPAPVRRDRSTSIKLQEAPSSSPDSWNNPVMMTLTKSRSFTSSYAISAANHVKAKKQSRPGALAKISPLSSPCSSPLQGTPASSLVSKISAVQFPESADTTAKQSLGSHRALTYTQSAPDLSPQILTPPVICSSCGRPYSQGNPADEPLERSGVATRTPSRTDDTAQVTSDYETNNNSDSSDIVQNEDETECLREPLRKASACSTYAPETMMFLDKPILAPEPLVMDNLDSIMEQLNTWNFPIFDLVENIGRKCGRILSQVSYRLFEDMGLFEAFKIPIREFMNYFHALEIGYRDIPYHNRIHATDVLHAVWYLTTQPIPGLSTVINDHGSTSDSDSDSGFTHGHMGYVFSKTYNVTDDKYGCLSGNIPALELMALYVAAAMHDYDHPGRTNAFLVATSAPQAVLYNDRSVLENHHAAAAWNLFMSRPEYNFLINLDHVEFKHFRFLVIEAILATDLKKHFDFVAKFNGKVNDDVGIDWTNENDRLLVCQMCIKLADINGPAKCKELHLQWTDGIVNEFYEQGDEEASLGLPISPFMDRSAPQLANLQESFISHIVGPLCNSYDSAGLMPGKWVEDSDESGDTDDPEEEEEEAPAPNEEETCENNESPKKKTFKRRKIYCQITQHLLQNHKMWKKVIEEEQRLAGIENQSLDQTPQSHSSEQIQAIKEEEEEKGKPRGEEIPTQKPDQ
Chain of PDE8A1 (O60658 whole entry): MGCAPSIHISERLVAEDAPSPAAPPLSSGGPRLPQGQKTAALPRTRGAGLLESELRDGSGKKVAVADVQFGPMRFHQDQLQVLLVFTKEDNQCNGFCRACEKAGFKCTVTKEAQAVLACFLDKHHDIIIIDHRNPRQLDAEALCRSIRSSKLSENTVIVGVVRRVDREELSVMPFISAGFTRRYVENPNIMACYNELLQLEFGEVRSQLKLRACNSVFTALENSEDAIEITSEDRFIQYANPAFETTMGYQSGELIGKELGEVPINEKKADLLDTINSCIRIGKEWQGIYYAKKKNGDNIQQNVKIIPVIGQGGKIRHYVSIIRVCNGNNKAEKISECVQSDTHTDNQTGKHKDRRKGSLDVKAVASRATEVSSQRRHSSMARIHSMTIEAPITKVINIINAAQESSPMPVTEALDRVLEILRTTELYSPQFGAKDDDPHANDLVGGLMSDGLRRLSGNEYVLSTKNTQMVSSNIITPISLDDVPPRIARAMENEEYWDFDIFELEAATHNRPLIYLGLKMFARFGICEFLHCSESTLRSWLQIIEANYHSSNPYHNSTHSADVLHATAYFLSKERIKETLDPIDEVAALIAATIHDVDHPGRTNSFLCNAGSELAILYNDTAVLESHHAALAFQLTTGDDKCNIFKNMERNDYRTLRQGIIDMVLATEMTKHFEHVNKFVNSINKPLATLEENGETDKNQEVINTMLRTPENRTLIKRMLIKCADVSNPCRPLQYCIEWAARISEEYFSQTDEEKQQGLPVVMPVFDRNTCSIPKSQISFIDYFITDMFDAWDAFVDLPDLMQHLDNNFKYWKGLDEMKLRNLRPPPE

For `COc1cc(-c2cc(=O)c3c(O)c(OC)c(O)c(OC)c3o2)ccc1O` [Sudachitin], the IC50 [1] was 6.54 µM, the IC50 [2] was 26.3 µM and the IC50 [3] was 5.19 µM. The IC50 [4] was 9.99 µM.

Reference: article PMC11367099 (Heliyon, 2024)
